# In patent US11065231B2, “Compounds and methods for the targeted degradation of interleukin-1 receptor- associated kinase 4 polypeptides” (Arvinas Operations, Inc., priority 2017, dated 2021):
# pIC50: −log10 of the molar value.
# Tests used:
# IRAK4 [1] = target: T1, IRAK4 (Homo sapiens (Human), UniProt Q9NWZ3); assay: Biochemical Z'-Lyte FRET assay for IRAK4 kinase inhibition; settings: 2 nM enzyme, 1 mM ATP, 2 μM substrate
# Protocol: Biochemical Assay for IRAK4 Kinase Inhibition.
# A Z′-Lyte assay based on a fluorescence resonance energy transfer (FRET) readout was developed for measuring IRAK4-dependent phosphorylation of a FRET-peptide substrate as described by Thermo Fisher Scientific (Grand Island, N.Y.). At a starting concentration of 1.5 mM, the identified compounds were serially diluted with 100% dimethyl sulfoxide (DMSO) in 3-fold increments, into Greiner bio-one 96-well plates (cat. #: 650201, Greiner bio-one, Monroe, N.C.). Compounds were then transferred to intermediate Greiner bio-one 96-well plates and diluted 10-fold with Kinase assay buffer (25 mM HEPES, pH 7.5, 10 mM MgCl2, 10 mM MnCl2, 1 mM EGTA, and 0.01% Brij-35, 2 mM DTT). Three μL of the serially diluted compounds were then transferred in duplicate to low-volume 384-well black proxiplates (cat. #: 6008269; Perkin Elmer, Akron, Ohio), to give duplicate twelve-point concentration curves. Six μl of a 2.5× solution of IRAK4 enzyme (cat #: 40064, BPS Bioscience, San Diego, Calif.) in kinase buffer was added to each well, followed by a 10 minutes pre-incubation step. Reactions were initiated by adding 6 μl of a 2.5× substrate mix of ATP and Z′-Lyte Ser/Thr 7 peptide (cat. #: PV3180, Thermo Fisher Scientific, Grand Island, N.Y.) and proceeded at room temperature for 1 hour. The final concentration of key reagents in the 15 uL kinase reactions were 2 μM substrate, 2 nM enzyme, and 1 mM ATP, with dose responses starting at 30 μM compound. At the end of the kinase reactions, 5 μl of developing solution (as instructed in for cat. #: PV3180, Thermo Fisher Scientific, Grand Island, N.Y.) was added to each well and incubated at room temperature for 1 hour. All wells were read on an Envision 2105 Multilabel fluorescence plate reader (Perkin Elmer, Waltham, Mass.) at 400 nm excitation and 460 nm/530 nm emission. Plus and minus 100% inhibition controls were used to calculate percent inhibition and IC50 curves were generated using Graphpad Prism (La Jolla, Calif.).
# IRAK4 [2] = target: T1, IRAK4; assay: Western blot assay for assessing degradation of IRAK4 in MCF7 cells; format: cell-based; settings: Table 5, IRAK4 degradation, 24 hour incubation; for DC50: read-out: IRAK4 DC50; for Dmax: read-out: IRAK4 Dmax (%)
# Protocol: Western Blot Assay for Assessing Degradation of IRAK4.
# MCF7 cells, purchased from ATCC (Manassas, Va.), were used at a passage range of 2-19. Cells were seeded at 50% confluency in 96-well plates at 180 μl/well in cell media (Dulbecco's Modified Eagle medium/nutrient F-12 Ham-10% Fetal Bovine Serum) and incubated overnight. The next morning, compounds were serially diluted and added (20 μl into 180 μl media) at a final DMSO concentration of 0.1%. Cells were rinsed with cell media and replaced with compounds in media, followed by incubation overnight. After a 24 hour incubation with compound, cell were harvested (90-100% confluent at harvest). Cells were then washed once with 100 μl of Dulbecco's hosphate-buffered saline and then lysed with 40 μl of lysis buffer (1×RIPA+HALT protease inhibitor+HALT phosphatase inhibitor) on ice for 10 minutes. Lysates were then cleaned by filtration in 1.2 µm filter plates followed by western blotting. For each sample, 30 μl of lysate were added to 10 μl of 4×LDS sample buffer, then denatured at 95° C. for 5 minutes in the thermal cycler and placed on ice. Fifteen μL of each sample were then loaded on 4-15% Tris/Glycine gels and run for 25 minutes at 250 (constant) volts in 1× Tris/Glycine buffer. Protein was transferred from gels to nitrocellulose using a BioRad Turbo dry-transfer unit with the Turbo/midi default program. All blots were rinsed with ddH2O and blocked for 1 hour at room temperature in 5% bovine serum albumin (BSA) in tris-buffered saline-Tween 20 (TBS-T) (0.1%) on rocker. Blots were exposed to primary antibody in 5% BSA in TBS-T (0.1%) overnight at 4° C. on rocker. Primary antibodies, diluted 1:1000 in […], were as follows: anti-IRAK4 (cat. #: ab119942, Abcam, Cambridge, Mass.), anti-IRAK1 (cat. #: CST 4504S, Cell Signaling Technology, Danvers, Mass.), and anti-Beta-actin (Cat. #: ab8227, Abcam, Cambridge, Mass.). Blots were then washed with TBS-T (0.1%) three times for 5 minutes on a rocker at room temperature. Secondary antibody (1:18,000 anti-rabbit-HRP and/or anti-mouse-HRP in 5% BSA in TBST (0.1%) was then added, and blots incubated at room temperature rocker for 1 hour. Blots were washed 3 times in TBS-T (0.1%) for 5 minutes at room temperature on the rocker. Signal was developed with Femto Max substrate for 5 minutes and blots read on a ChemiDoc. Percent degradation was assessed by comparing IRAK4 signal in compound vs. DMSO treated lysates.
# T1 sequence (Q9NWZ3 whole entry): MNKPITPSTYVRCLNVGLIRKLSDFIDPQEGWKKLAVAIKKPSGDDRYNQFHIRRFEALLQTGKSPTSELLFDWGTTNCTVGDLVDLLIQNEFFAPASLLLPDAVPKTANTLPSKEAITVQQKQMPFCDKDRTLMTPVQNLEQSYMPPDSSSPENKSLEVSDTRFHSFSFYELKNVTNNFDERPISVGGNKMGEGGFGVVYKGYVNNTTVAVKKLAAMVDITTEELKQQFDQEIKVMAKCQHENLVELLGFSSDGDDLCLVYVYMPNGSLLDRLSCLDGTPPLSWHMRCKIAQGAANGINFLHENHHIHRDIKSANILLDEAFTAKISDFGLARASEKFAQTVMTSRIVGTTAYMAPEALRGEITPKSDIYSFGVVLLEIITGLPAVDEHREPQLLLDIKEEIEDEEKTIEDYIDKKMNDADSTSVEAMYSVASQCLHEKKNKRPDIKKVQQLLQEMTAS
pIC50 (IRAK4 [1]),DC50 (IRAK4 [2]) [µM],Dmax (IRAK4 [2]) [%],Compound
≤ 6.00,–,–,N#Cc1ccc2ncnc(N[C@H]3CC[C@H](N4CCN(S(=O)(=O)CCOCCOCCOCCOc5ccc6c(c5)C(=O)N(C5CCC(=O)NC5=O)C6=O)CC4)CC3)c2c1 (stereo partly shown) [compound 38]
> 7.52,≥ 1,–,"O=C1CCC(N2Cc3cc(OCCOCCN4CCN(Cc5ccc6c(c5)nc(NC(=O)c5cccc(C(F)(F)F)c5)n6[C@H]5CC[C@@H](CO)CC5)CC4)ccc3C2=O)C(=O)N1 (stereo partly shown) [compound 6, N-(5-((4-(2-(2-((2-(2,6-dioxopiperidin-3-yl)-1-oxoisoindolin-5-yl)oxy)ethoxy)ethyl)piperazin-1-yl)methyl)-1-((1s,4s)-4-(hydroxymethyl)cyclohexyl)-1H-benzo[d]imidazol-2-yl)-3-(trifluoromethyl)benzamide]"
–,–,30 to 50,"O=C1CCC(N2C(=O)c3ccc(OCCN4CCN(Cc5ccc6c(c5)nc(NC(=O)c5cccc(C(F)(F)F)c5)n6C5CCC(CO)CC5)CC4)cc3C2=O)C(=O)N1 (stereo not shown) [compound 1, N-(5-((4-(2-((2-(2,6-dioxopiperidin-3-yl)-1,3-dioxoisoindolin-5-yl)oxy)ethyl)piperazin-1-yl)methyl)-1-((1s,4s)-4-(hydroxymethyl)cyclohexyl)-1H-benzo[d]imidazol-2-yl)-3-(trifluoromethyl)benzamide]"
≤ 6.00,–,–,N#Cc1ccc2ncnc(N[C@H]3CC[C@@H](N4CCN(S(=O)(=O)CCOCCOCCOCCOc5ccc6c(c5)C(=O)N(C5CCC(=O)NC5=O)C6=O)CC4)CC3)c2c1 (stereo partly shown) [compound 39]
6.00 to 6.52,≥ 1,–,"Cc1ccc(-n2nc(N3CCN(CCOCCOCCOCC(=O)N[C@H](C(=O)N4C[C@H](O)C[C@H]4C(=O)NCc4ccc(-c5scnc5C)cc4)C(C)(C)C)CC3)cc2NC(=O)c2cnn3cccnc23)nc1 [compound 27, N-(3-(4-((S)-13-((2S,4R)-4-hydroxy-2-((4-(4-methylthiazol-5-yl)benzyl)carbamoyl)pyrrolidine-1-carbonyl)-14,14-dimethyl-11-oxo-3,6,9-trioxa-12-azapentadecyl)piperazin-1-yl)-1-(5-methylpyridin-2-yl)-1H-pyrazol-5-yl)pyrazolo[1,5-a]pyrimidine-3-carboxamide]"
≤ 6.00,≥ 1,–,"O=C1CCC(N2C(=O)c3ccc(OCCOCCOCCOCCOC[C@H]4CC[C@@H](n5c(NC(=O)c6cccc(C(F)(F)F)c6)nc6cc(F)ccc65)CC4)cc3C2=O)C(=O)N1 (stereo partly shown) [compound 48, N-(1-((1s,4s)-4-(13-((2-(2,6-dioxopiperidin-3-yl)-1,3-dioxoisoindolin-5-yl)oxy)-2,5,8,11-tetraoxatridecyl)cyclohexyl)-5-fluoro-1H-benzo[d]imidazol-2-yl)-3-(trifluoromethyl)benzamide]"
–,–,> 70,O=C1CCC(N2C(=O)c3ccc(OCCN4CCC(CN5CCN(Cc6ccc7c(c6)nc(NC(=O)c6cccc(C(F)(F)F)c6)n7C6CCC(CO)CC6)CC5)CC4)cc3C2=O)C(=O)N1 (stereo not shown) [compound 10]
≤ 6.00,–,–,N#Cc1ccc2ncnc(N[C@H]3CC[C@@H](N4CCN(S(=O)(=O)CCOCCOCCOc5ccc6c(c5)C(=O)N(C5CCC(=O)NC5=O)C6=O)CC4)CC3)c2c1 (stereo partly shown) [compound 37]
–,≥ 1,–,"O=C1CCC(N2C(=O)c3ccc(OCCOCCOCCOCC4CCC(n5c(NC(=O)c6cccc(C(F)(F)F)c6)nc6cc(CN7CCCCC7)ccc65)CC4)cc3C2=O)C(=O)N1 (stereo not shown) [compound 43, N-(1-((1s,4s)-4-((2-(2-(2-((2-(2,6-dioxopiperidin-3-yl)-1,3-dioxoisoindolin-5-yl)oxy)ethoxy)ethoxy)ethoxy)methyl)cyclohexyl)-5-(piperidin-1-ylmethyl)-1H-benzo[d]imidazol-2-yl)-3-(trifluoromethyl)benzamide]"
> 7.52,–,–,"COc1cc2nn(C3CCN(CCOCCOCCNc4cccc5c4C(=O)N(C4CCC(=O)NC4=O)C5=O)CC3)cc2cc1NC(=O)c1cccc(C(F)(F)F)n1 (stereo not shown) [compound 62, N-(2-(1-(2-(2-(2-((2-(2,6-dioxopiperidin-3-yl)-1,3-dioxoisoindolin-4-yl)amino)ethoxy)ethoxy)ethyl)piperadin-4-yl)-6-methoxy-2H-indazol-5-yl)-6-(trifluoromethyl)picolinamide]"
≤ 6.00,–,–,"COc1cccc(-n2c(NC(=O)c3cccc(C(F)(F)F)c3)nc3cc(CN4CCN(CCOCCOc5ccc6c(c5)C(=O)N(C5CCC(=O)NC5=O)C6=O)CC4)ccc32)c1 (stereo not shown) [compound 57, N-(5-((4-(2-(2-((2-(2,6-dioxopiperidin-3-yl)-1,3-dioxoisoindolin-5-yl)oxy)ethoxy)ethyl)piperazin-1-yl)methyl)-1-(3-methoxyphenyl)-1H-benzo[d]imidazol-2-yl)-3-(trifluoromethyl)benzamide]"
–,0.03 to 0.1,> 70,"O=C1CCC(N2C(=O)c3ccc(OC4CCC(CN5CCN(Cc6ccc7c(c6)nc(NC(=O)c6cccc(C(F)(F)F)c6)n7C6CCC(CO)CC6)CC5)CC4)cc3C2=O)C(=O)N1 (stereo not shown) [compound 67, N-(5-((4-((4-((2-(2,6-dioxopiperidin-3-yl)-1,3-dioxoisoindolin-5-yl)oxy)cycloethyl)methyl)piperazin-1-yl)methyl)-1-((1s,4s)-4-(hydroxymethyl)cyclohexyl)-1H-benzo[d]imidazol-2-yl)-3-(trifluoromethyl)benzamide]"
–,–,50 to 70,"O=C1CCC(N2C(=O)c3cccc(NCCOCCOCCN4CCN(Cc5ccc6c(c5)nc(NC(=O)c5cccc(C(F)(F)F)c5)n6C5CCC(CO)CC5)CC4)c3C2=O)C(=O)N1 (stereo not shown) [compound 66, N-(5-((4-(2-(2-(2-((2-(2,6-dioxopiperidin-3-yl)-1,3-dioxoisoindolin-4-yl)amino)ethoxy)ethoxy)ethyl)piperazin-1-yl)methyl)-1-((1s,4s)-4-(hydroxymethyl)cyclohexyl)-1H-benzo[d]imidazol-2-yl)-3-(trifluoromethyl)benzamide]"
≤ 6.00,–,–,O=C1CCC(N2C(=O)c3ccc(OCCOC[C@H]4CC[C@@H](n5c(NC(=O)c6cccc(C(F)(F)F)c6)nc6cc(F)ccc65)CC4)cc3C2=O)C(=O)N1 (stereo partly shown) [compound 45]
> 7.52,–,–,"COc1cc2nn(C3CCN(CCOCCOCCOCCNc4cccc5c4C(=O)N(C4CCC(=O)NC4=O)C5=O)CC3)cc2cc1NC(=O)c1cccc(C(F)(F)F)n1 (stereo not shown) [compound 64, N-(2-(1-(2-(2-(2-(2-((2-(2,6-dioxopiperidin-3-yl)-1,3-dioxoisoindolin-4-yl)amino)ethoxy)ethoxy)ethoxy)ethyl)piperadin-4-yl)-6-methoxy-2H-indazol-5-yl)-6-(trifluoromethyl)picolinamide]"
